Test results published in patent US20100239685A1, “COMPOUND FOR TREATMENT OR PREVENTION OF PROSTATE-RELATED DISEASES AND PHARMACEUTICAL COMPOSITION OF COLON DELIVERY SYSTEM CONTAINING THE SAME” (priority 2006, published 2010).
Values joined by “and” are separate entries in the source; they are usually repeats but may differ in a detail not shown here. Identical values can stand only once.

How the values were obtained:
[1] = Determination of partition coefficients (octanol / phosphate buffer pH 7.4); assay type: physicochemical; conditions: sample 200 μg/mL; octanol/water; replicates 1-3
Method: Octanol and phosphate buffer (pH 7.4) were saturated with a counter-solvent for 24 hours or more. A given amount of a naphthoquinone-based compound (compound 1 of Table 1 below) was dissolved in the thus-saturated octanol, mixed with triple-distilled water and stirred using a magnetic stirrer at 200 rpm for 13 hours or more. Samples were taken, filtered through a 0.45 μm RC Membrane filter and diluted with methanol. The diluted sample materials were analyzed by HPLC. A partition coefficient versus an amount of the compound 1 was determined.

[2] = cited from earlier work
[3] = Intestinal absorption, single-pass intestinal perfusion; assay type: in vivo, rats
Method: In order to determine intestinal absorption (%) of a naphthoquinone-based compound, a single-pass intestinal perfusion technique was carried out in internal organs of rats, including jejunum, ileum and large intestine. The steady-state intestinal effective permeability (Peff) can be expressed according to the following equation. Peff=[−Qin·ln (Cout/Cin)]/A Peff: Steady-state intestinal effective permeability (cm/s) Qin: Perfusion flow rate (0.4 mL/min) Cin, Cout: Inlet and fluid-transport-corrected outlet solution concentrations A: Mass transfer surface area within intestinal segment (2πrL), r, L: Radius and length of intestinal segment The radius (r) and length (L) of the jejunum, ileum and large intestine used in experiments are as follows: (r: jejunum, 0.21 cm; ileum, 0.22 cm; large intestine, 0.23 cm, and L: 10 cm) The steady-state was confirmed by the ratio of the outlet to inlet concentrations (Cout/Cin) versus time. The steady-state is established when the Cout/Cin ratio of the naphthoquinone-based compound is maintained at a constant value (n=3, error bars with respect to S.D.). Residual amounts of the naphthoquinone-based compound in the above three intestinal organs were measured at different time points. The outlet steady-state concentration of the compound under perfusion was calculated. The results thus obtained are given in Table 4 and FIG. 2, respectively. The effective permeability was measured at 4 points of each intestinal tissue.

## CC1(C)CCC2=C(O1)c1ccccc1C(=O)C2=O [Compound 1]
[1]
  Partition Coefficient: 2.40 and 2.20

## C[C@H]1COC2=C1C(=O)C(=O)c1c2ccc2c1CCCC2(C)C [cryptotanshinone]
[2]
  absorption rate via oral administration: 2.05%

## CC1(C)CCC2=C(O1)c1ccccc1C(=O)C2=O [naphthoquinone-based compound]
[3]; Duodenum
  Peff: 0.79 ± 0.33 × 10^−5 (cm/s)
[3]; Ileum
  Peff: 5.15 ± 1.49 × 10^−5 (cm/s)
[3]; Jejunum
  Peff: 2.37 ± 1.17 × 10^−5 (cm/s)
[3]; Large intestine
  Peff: 7.82 ± 0.93 × 10^−5 (cm/s)
